{"source": "paper PMC7466159", "about": "“Anti-Metastasis Fascin Inhibitors Decrease the Growth of Specific Subtypes of Cancers” (Cancers, 2020)", "key": {"[1]": {"test_system": "4T1 breast tumor cells", "experiment": "4T1 metastatic recurrence after chemotherapy and surgical removal of primary tumor", "assay_type": "in vivo, mice", "settings": "100 mg/kg once daily by gavage starting on Day 3, with paclitaxel and surgery; compared to chemotherapy alone, p < 0.05; Day 32", "protocol": "Female BALB/c mice (6- to 8-week old) were purchased from Charles River Labs. The 4T1 tumor cells (1 × 10^5) were injected subcutaneously into the abdominal mammary gland area of mice using 0.1 mL of a single-cell suspension in PBS-matrigel (v/v, 1:1) on Day 0 as previously described. […] On Day 28, the mice were sacrificed. […] The numbers of metastatic 4T1 cells in lungs were determined by a clonogenic assay. In brief, the lungs were removed from each mouse, finely minced and digested in 5 mL of an enzyme cocktail containing 1 × PBS and 1 mg/mL collagenase type IV for 2 h at 37 ℃ on a platform rocker. After incubation, samples were filtered through 70-µm nylon cell strainers and washed twice with PBS. The resulting cells were suspended and plated with a series of dilutions in 10-cm tissue culture dishes in DMEM medium containing 60 µM thioguanine for clonogenic growth. As 4T1 tumor cells are resistant to 6-thioguanine, the metastasized tumor cells formed foci after 14 days, at which time they were fixed with 4% paraformaldehyde and stained with crystal violet staining solution for counting. For the experiments in Figure 2F,G, 4T1 tumor cells (1 × 10^5) suspended in PBS-matrigel (v/v, 1:1) were injected subcutaneously into the abdominal mammary gland area of mice on day 0. Starting on Day 3, NP-G2-044 was given to mice once every day by oral gavage at 100 mg kg^−1 per mouse. […]"}, "[2]": {"experiment": "Plasma protein binding assay with mouse plasma", "assay_type": "in vitro ADME", "settings": "in the presence of 100% serum"}, "[3]": {"test_system": "Ly10 cells", "experiment": "Soft-agar colony formation assay, Ly10", "assay_type": "cell-based", "settings": "14 days, dosage-dependent", "protocol": "(§1) A total of 1 × or 2 ×10^4 cells were suspended in 0.5 mL of 0.3% low melting point agar (Merck KGaA, Darmstadt, Germany) in RPMI-1640 or DMEM containing 10% FBS and control solvent or the inhibitors. This suspension was overlaid on pre-solidified with 0.6% agar in the same medium in 24-well plates as previously described. Normal growth medium containing control solvent or the inhibitors was gently layered over the cultures every 4 days for 14 days. The colonies were stained with 0.1% crystal violet for 1 h at room temperature and counted under a microscope."}, "[4]": {"test_system": "HT cells", "experiment": "Soft-agar colony formation assay, HT", "assay_type": "cell-based", "settings": "14 days, dosage-dependent", "protocol": "as §1"}, "[5]": {"test_system": "phosphorylation of PI3K, AKT, JNK, and STAT6", "experiment": "Western blotting of signaling pathways in U2932 cells", "assay_type": "cell-based", "settings": "30 µM, 16 h", "protocol": "(§2) We treated U2932 cells with or without NP-G2-044, and measured the potential effects of NP-G2-044 on various pathways critical for lymphoma cell growth.\n(§3) The lymphoma cells were plated in 10-cm dish. After culture for 24 h, cells were incubated in serum-free medium for 16 h. Cells were then incubated in growth medium with 30 µM NP-G2-044 or dissolvent for 16 h, followed by collecting whole cell lysates or nuclear extracts as previously described."}, "[6]": {"test_system": "NF-κB nuclear translocation in U2932 cells", "experiment": "p65 (NF-κB) nuclear translocation, Western blotting, U2932", "assay_type": "cell-based", "settings": "30 µM, 16 h", "protocol": "as §2, §3"}, "[7]": {"test_system": "phosphorylation of ERK, PLCγ1, and PI3K in MDA-MB-468 cells", "experiment": "EGFR signaling pathway Western blotting, MDA-MB-468", "assay_type": "cell-based", "settings": "10 ng/mL EGF, 30 µM, 24 h", "protocol": "MDA-MB-468 cells and HCC38 cells grew in the presence of EGF with or without NP-G2-044. […] Finally, we used the animal model to investigate whether the primary tumor growth of MDA-MB-468 cells was sensitive to fascin inhibitors. MDA-MB-468 tumor cells were implanted into the mammary gland of NSG mice, and these mice were randomly divided into four groups. One group of mice was used as control (Figure 6I). The second group of mice was treated with the fascin inhibitor NP-G2-044 (Figure 6I). The third group was treated with the EGFR inhibitor gefitnib (Figure 6I), and the fourth group was treated with the combination of NP-G2-044 + gefitinib (Figure 6I). […] We dissected the primary tumor tissues 55 days after the tumor implantation from some mice. […] Furthermore, the overall survival of the mice was analyzed (Figure 6K).\nFor the cell signal pathway analysis of breast cancer cells, HCC38 and MDA-MB-468 cells were plated in a 10-cm dish. After culture for 24 h, cells were incubated in serum-free medium for 16 h."}, "[8]": {"experiment": "Stability in plasma samples during bioanalysis", "assay_type": "physicochemical", "settings": "after freeze-thaw, and during storage, processing and analysis", "quoted_text": "The concentrations of NP-G2-044 in plasma were determined using high performance liquid chromatography with tandem mass spectrometry (LC-MS/MS). All blood samples were transferred into a commercial tube containing potassium (K2) EDTA (ethylene diaminetetraacetic acid) and were processed for plasma. Samples were centrifuged (3000× g for 10 min at 2 to 8 °C) within one hour of collection. The assays used a Sciex API 4000 detector and nifedipine as an internal standard. The calibration ranges for NP-G2-044 were from 5.00 to 5000 ng/mL."}, "[9]": {"test_system": "KARPAS 299 lymphoma cells", "experiment": "Cell growth sensitivity, KARPAS 299", "assay_type": "cell-based"}, "[10]": {"test_system": "4T1 triple-negative breast cancer cells", "design": "method as in PMID 26081695, PMID 27071719", "settings": "4T1 cells; cited from earlier work"}, "[11]": {"experiment": "in vivo", "settings": "mouse, plasma", "quoted_text": "(§4) The PK parameters of NP-G2-044 were assessed following a single intravenous (IV) and single oral (PO) gavage dose administration to mice. Blood samples were collected pre-dose, and 3, 10, 30 min, 1, 1.5, 3, 6, 9, 24, 32, or 48 h after dosing. The plasma samples were then extracted and the concentrations of NP-G2-044 were determined by LC-MS/MS.\n(§5) The concentrations of NP-G2-044 in plasma were determined using high performance liquid chromatography with tandem mass spectrometry (LC-MS/MS). All blood samples were transferred into a commercial tube containing potassium (K2) EDTA (ethylene diaminetetraacetic acid) and were processed for plasma. Samples were centrifuged (3000× g for 10 min at 2 to 8 °C) within one hour of collection. The assays used a Sciex API 4000 detector and nifedipine as an internal standard. The calibration ranges for NP-G2-044 were from 5.00 to 5000 ng/mL. The plasma concentration of NP-G2-044 in mice was subjected to a non-compartmental pharmacokinetic analysis by using the Phoenix WinNonlin software (version 6.3, Pharsight, Mountain View, CA, USA). The nominal dose levels and nominal sampling times were used in the calculation of all pharmacokinetic parameters. The linear/log trapezoidal rule was applied in obtaining the PK parameters."}, "[12]": {"test_system": "HT cells", "experiment": "Cell growth assay, HT", "settings": "HT cells in culture, 4 days", "quoted_text": "(§6) We then extended our search to other types of lymphoma cells. […] Both U2932 and Ly10 cells are ABC-subtype DLBCLs, and HT cells are diffuse mixed lymphoma.\n(§7) For NP-G2-044 dose-dependent studies, 1 × 10^5 Ly10, U2932, or HT cells were seeded in a 12- or 24-well plate on day 0. A total of 1, 3, 10, 30, or 100 μM NP-G2-044 or control solvent was added to the plates. Cells were collected and counted on day 4. For time-dependent studies, 1 × 10^5 Ly10, U2932, or HT cells were seeded in a 12- or 24-well plate on day 0. A total of 30 μM NP-G2-044, 5 μM LY2409881, 30 μM NP-G2-044 plus 5 μM LY2409881, or control solvent was added to the plates. Cells were collected and counted on Days 2 and 4. […] The cell growth index was expressed as the fold changes of cell numbers over the starting cell number. For these assays, the old medium was changed with a fresh medium containing the control solvent or the inhibitors every two days."}, "[13]": {"test_system": "U2932 cells", "experiment": "Cell growth assay, U2932", "settings": "U2932 cells in culture, 4 days", "quoted_text": "as §6, §7"}, "[14]": {"experiment": "Pharmacokinetic study after single IV and oral gavage dose, plasma by LC-MS/MS", "settings": "mice", "quoted_text": "as §4, §5"}}, "data": [{"smiles": "Cc1occc1C(=O)Nc1nn(Cc2ccc(C(F)(F)F)cc2)c2ccccc12", "note": "[NP-G2-044]", "values": [{"measurement": "metastatic recurrence of breast tumors in the lung", "setting": "[1]", "result": "slowed the metastatic recurrence"}, {"measurement": "fraction unbound", "setting": "[2]", "result": "~0.003"}, {"measurement": "number of growing colonies", "setting": "[3]", "result": "decreased the number of growing colonies"}, {"measurement": "number of growing colonies", "setting": "[4]", "result": "decreased the number of growing colonies"}, {"measurement": "phosphorylation of PI3K, AKT kinase, JNK kinase, and STAT6 transcription factor", "setting": "[5]", "result": "no effect"}, {"measurement": "nuclear translocation of the p65 subunits", "setting": "[6]", "result": "decreased"}, {"measurement": "phosphorylation of ERK, PLCγ1, and PI3K", "setting": "[7]", "result": "affected"}, {"measurement": "stability", "setting": "[8]", "result": "stable"}, {"measurement": "growth sensitivity", "setting": "[9]", "result": "insensitive"}, {"measurement": "induction of apoptosis", "setting": "[10]", "result": "did not induce the apoptosis"}, {"measurement": "AUC(0-inf)", "setting": "[11]; iv, 20 mg/kg", "result": "7290 ± 1850", "unit": "ng·h/mL"}, {"measurement": "AUC(0-t)", "setting": "[11]; iv, 20 mg/kg", "result": "7150 ± 1750", "unit": "ng·h/mL"}, {"measurement": "C0", "setting": "[11]; iv, 20 mg/kg", "result": "11300 ± 3840", "unit": "ng/mL"}, {"measurement": "MRT inf", "setting": "[11]; iv, 20 mg/kg", "result": "3.34 ± 0.68", "unit": "h"}, {"measurement": "MRT last", "setting": "[11]; iv, 20 mg/kg", "result": "2.81 ± 0.36", "unit": "h"}, {"measurement": "Vd", "setting": "[11]; iv, 20 mg/kg", "result": 9.3, "unit": "L/kg"}, {"measurement": "clearance", "setting": "[11]; iv, 20 mg/kg", "result": "48 ± 13.4", "unit": "mL/min/kg"}, {"measurement": "half-life", "setting": "[11]; iv, 20 mg/kg", "result": "5.45 ± 1.58", "unit": "h"}, {"measurement": "Tmax", "setting": "[11]; po", "result": "0.8 to 6", "unit": "h"}, {"measurement": "AUC(0-inf)", "setting": "[11]; po, 20 mg/kg", "result": "2570 ± 568", "unit": "ng·h/mL"}, {"measurement": "AUC(0-t)", "setting": "[11]; po, 20 mg/kg", "result": "2550 ± 575", "unit": "ng·h/mL"}, {"measurement": "Cmax", "setting": "[11]; po, 20 mg/kg", "result": "541 ± 176", "unit": "ng/mL"}, {"measurement": "MRT inf", "setting": "[11]; po, 20 mg/kg", "result": "6.46 ± 1.44", "unit": "h"}, {"measurement": "MRT last", "setting": "[11]; po, 20 mg/kg", "result": "6.16 ± 1.36", "unit": "h"}, {"measurement": "Tmax", "setting": "[11]; po, 20 mg/kg", "result": "0.83 ± 0.58", "unit": "h"}, {"measurement": "bioavailability", "setting": "[11]; po, 20 mg/kg", "result": 35.3, "unit": "%"}, {"measurement": "half-life", "setting": "[11]; po, 20 mg/kg", "result": "4.36 ± 0.46", "unit": "h"}, {"measurement": "AUC(0-inf)", "setting": "[11]; po, 50 mg/kg", "result": "6210 ± 1650", "unit": "ng·h/mL"}, {"measurement": "AUC(0-t)", "setting": "[11]; po, 50 mg/kg", "result": "6190 ± 1650", "unit": "ng·h/mL"}, {"measurement": "Cmax", "setting": "[11]; po, 50 mg/kg", "result": "678 ± 258", "unit": "ng/mL"}, {"measurement": "MRT inf", "setting": "[11]; po, 50 mg/kg", "result": "7.54 ± 0.85", "unit": "h"}, {"measurement": "MRT last", "setting": "[11]; po, 50 mg/kg", "result": "7.4 ± 0.75", "unit": "h"}, {"measurement": "Tmax", "setting": "[11]; po, 50 mg/kg", "result": "4.17 ± 3.18", "unit": "h"}, {"measurement": "bioavailability", "setting": "[11]; po, 50 mg/kg", "result": 34.1, "unit": "%"}, {"measurement": "half-life", "setting": "[11]; po, 50 mg/kg", "result": "3.58 ± 0.43", "unit": "h"}, {"measurement": "AUC(0-inf)", "setting": "[11]; po, 100 mg/kg", "result": "14300 ± 2390", "unit": "ng·h/mL"}, {"measurement": "AUC(0-t)", "setting": "[11]; po, 100 mg/kg", "result": "14300 ± 2400", "unit": "ng·h/mL"}, {"measurement": "Cmax", "setting": "[11]; po, 100 mg/kg", "result": "1450 ± 157", "unit": "ng/mL"}, {"measurement": "MRT inf", "setting": "[11]; po, 100 mg/kg", "result": "8.4 ± 0.41", "unit": "h"}, {"measurement": "MRT last", "setting": "[11]; po, 100 mg/kg", "result": "8.33 ± 0.38", "unit": "h"}, {"measurement": "Tmax", "setting": "[11]; po, 100 mg/kg", "result": "6 ± 3", "unit": "h"}, {"measurement": "bioavailability", "setting": "[11]; po, 100 mg/kg", "result": 39.2, "unit": "%"}, {"measurement": "half-life", "setting": "[11]; po, 100 mg/kg", "result": "4.39 ± 1.56", "unit": "h"}, {"measurement": "effect on cell growth", "setting": "[12]", "result": "inhibitory effect"}, {"measurement": "effect on cell growth", "setting": "[13]", "result": "inhibitory effect"}, {"measurement": "Vd", "setting": "[14]; IV, 20 mg/kg", "result": "9.32 ± 1.35", "unit": "L/kg"}, {"measurement": "oral bioavailability (based on AUC0–t)", "setting": "[14]; oral 20 to 100 mg/kg", "result": "34–39%"}]}]}
